# Reference: PubChem BioAssay AID1963421 (Molecular Pharmacology Branch, DTP, NCI, 2024)
# Test system: 519858-162-T-J1-PDC complex spheroid growth, % test/control
# Experiment: Anticancer human tumor 519858-162-T-J1-PDC patient-derived colon adenocarcinoma cell line growth inhibition [Asc]
# Conditions: for IC50: curve of first compound; for viability, T/C: stronger effect = lower value
# Outline: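 Spheroid model: tumor line + HUVEC + hMSC. Single agents and combinations; top conc. at/near clinical Cmax (10 microM if undetermined), half-log dilutions. DMSO stocks at 800-fold test concentration.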
# [1] = second compound 0.00316 µM, first compound 0.0316 µM
# [2] = second compound 0.00316 µM, first compound 0.1 µM
# [3] = second compound 0.00316 µM, first compound 0.316 µM
# [4] = second compound 0.00316 µM, first compound 1 µM
# [5] = second compound 0.01 µM, first compound 0.0316 µM
# [6] = second compound 0.01 µM, first compound 0.1 µM
# [7] = second compound 0.01 µM, first compound 0.316 µM
# [8] = second compound 0.01 µM, first compound 1 µM
# [9] = second compound 0.0316 µM, first compound 0.0316 µM
# [10] = second compound 0.0316 µM, first compound 0.1 µM
# [11] = second compound 0.0316 µM, first compound 0.316 µM
# [12] = second compound 0.0316 µM, first compound 1 µM
# [13] = second compound 0.1 µM, first compound 0.0316 µM
# [14] = second compound 0.1 µM, first compound 0.1 µM
# [15] = second compound 0.1 µM, first compound 0.316 µM
# [16] = second compound 0.1 µM, first compound 1 µM
# [17] = second compound 0.316 µM, first compound 0.0316 µM
# [18] = second compound 0.316 µM, first compound 0.1 µM
# [19] = second compound 0.316 µM, first compound 0.316 µM
# [20] = second compound 0.316 µM, first compound 1 µM
# [21] = second compound 1 µM, first compound 0.0316 µM
# [22] = second compound 1 µM, first compound 0.1 µM
# [23] = second compound 1 µM, first compound 0.316 µM
# [24] = second compound 1 µM, first compound 1 µM
# 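Note: seven day drug exposure begun three days after spheroid seeding.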
# 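Throughout, for viability, T/C: 100% = DMSO vehicle wells and lower values mean less viable spheroid.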
smiles,measurement,setting,value
C=CC(=O)N1CCN(c2nc(=O)n(-c3c(C)ccnc3C(C)C)c3nc(-c4c(O)cccc4F)c(F)cc23)C(C)C1 (centres undefined) + CNC(C)C(=O)NC1CN(S(=O)(=O)c2cccc(S(=O)(=O)N3CCC4CCC(C(=O)NC(c5ccccc5)c5ccccc5)N4C(=O)C(NC(=O)C(C)NC)C3)c2)CCC2CCC(C(=O)NC(c3ccccc3)c3ccccc3)N2C1=O,IC50,second compound 0.00316 µM,> 10 µM
same,IC50,second compound 0.01 µM,> 10 µM
same,IC50,second compound 0.0316 µM,> 10 µM
same,IC50,second compound 0.1 µM,> 10 µM
same,IC50,second compound 0.316 µM,> 10 µM
same,IC50,second compound 1 µM,> 10 µM
same,"viability, T/C",[1],125%
same,"viability, T/C",[2],106%
same,"viability, T/C",[3],98.9%
same,"viability, T/C",[4],75.7%
same,"viability, T/C","second compound 0.00316 µM, first compound 3.16 µM",88.3%
same,"viability, T/C","second compound 0.00316 µM, first compound 10 µM",89.6%
same,"viability, T/C",[5],113%
same,"viability, T/C",[6],84%
same,"viability, T/C",[7],101%
same,"viability, T/C",[8],76.1%
same,"viability, T/C","second compound 0.01 µM, first compound 3.16 µM",85.8%
same,"viability, T/C","second compound 0.01 µM, first compound 10 µM",92.4%
same,"viability, T/C",[9],104%
same,"viability, T/C",[10],95.4%
same,"viability, T/C",[11],109%
same,"viability, T/C",[12],79.1%
same,"viability, T/C","second compound 0.0316 µM, first compound 3.16 µM",101%
same,"viability, T/C","second compound 0.0316 µM, first compound 10 µM",90.8%
same,"viability, T/C",[13],77.9%
same,"viability, T/C",[14],80%
same,"viability, T/C",[15],103%
same,"viability, T/C",[16],90.4%
same,"viability, T/C","second compound 0.1 µM, first compound 3.16 µM",77.9%
same,"viability, T/C","second compound 0.1 µM, first compound 10 µM",80.4%
same,"viability, T/C",[17],85.2%
same,"viability, T/C",[18],94.9%
same,"viability, T/C",[19],95.4%
same,"viability, T/C",[20],89.2%
same,"viability, T/C","second compound 0.316 µM, first compound 3.16 µM",90.5%
same,"viability, T/C","second compound 0.316 µM, first compound 10 µM",98.4%
same,"viability, T/C",[21],89.7%
same,"viability, T/C",[22],90.3%
same,"viability, T/C",[23],80.3%
same,"viability, T/C",[24],82%
same,"viability, T/C","second compound 1 µM, first compound 3.16 µM",91.1%
same,"viability, T/C","second compound 1 µM, first compound 10 µM",88%
COc1c(OCCCN2CCOCC2)ccc2c3n(c(=NC(=O)c4cnc(N)nc4)nc12)CCN3 + CNC(C)C(=O)NC1CN(S(=O)(=O)c2cccc(S(=O)(=O)N3CCC4CCC(C(=O)NC(c5ccccc5)c5ccccc5)N4C(=O)C(NC(=O)C(C)NC)C3)c2)CCC2CCC(C(=O)NC(c3ccccc3)c3ccccc3)N2C1=O,IC50,second compound 0.00316 µM,0.32 µM
same,IC50,second compound 0.01 µM,0.162 µM
same,IC50,second compound 0.0316 µM,0.156 µM
same,IC50,second compound 0.1 µM,0.132 µM
same,IC50,second compound 0.316 µM,0.237 µM
same,IC50,second compound 1 µM,0.259 µM
same,"viability, T/C","second compound 0.00316 µM, first compound 0.00316 µM",78.1%
same,"viability, T/C","second compound 0.00316 µM, first compound 0.01 µM",61%
same,"viability, T/C",[1],68.8%
same,"viability, T/C",[2],65.4%
same,"viability, T/C",[3],48.8%
same,"viability, T/C",[4],27.9%
same,"viability, T/C","second compound 0.01 µM, first compound 0.00316 µM",83.3%
same,"viability, T/C","second compound 0.01 µM, first compound 0.01 µM",89.9%
same,"viability, T/C",[5],85.4%
same,"viability, T/C",[6],53.9%
same,"viability, T/C",[7],53.1%
same,"viability, T/C",[8],34.4%
same,"viability, T/C","second compound 0.0316 µM, first compound 0.00316 µM",82.7%
same,"viability, T/C","second compound 0.0316 µM, first compound 0.01 µM",78.9%
same,"viability, T/C",[9],67%
same,"viability, T/C",[10],54.9%
same,"viability, T/C",[11],42.1%
same,"viability, T/C",[12],27.6%
same,"viability, T/C","second compound 0.1 µM, first compound 0.00316 µM",86.5%
same,"viability, T/C","second compound 0.1 µM, first compound 0.01 µM",68.2%
same,"viability, T/C",[13],56.9%
same,"viability, T/C",[14],62.5%
same,"viability, T/C",[15],37.1%
same,"viability, T/C",[16],39.1%
same,"viability, T/C","second compound 0.316 µM, first compound 0.00316 µM",72.5%
same,"viability, T/C","second compound 0.316 µM, first compound 0.01 µM",88.5%
same,"viability, T/C",[17],78.3%
same,"viability, T/C",[18],65.9%
same,"viability, T/C",[19],45.1%
same,"viability, T/C",[20],36.4%
same,"viability, T/C","second compound 1 µM, first compound 0.00316 µM",84.4%
same,"viability, T/C","second compound 1 µM, first compound 0.01 µM",64.9%
same,"viability, T/C",[21],83.7%
same,"viability, T/C",[22],48.3%
same,"viability, T/C",[23],53.6%
same,"viability, T/C",[24],32%
